In US8501695B2, “Tissue kallikrein for the treatment of diseases associated with amyloid protein” (DiaMedica, Inc., priority 2007, dated 2013):

How the values were obtained:
[1] = test system: rat mixed cortical cultures (RMCC); test: Aβ1-42 toxicity in rat mixed cortical cultures, LDH measurement; type: cell-based; conditions: for LDH release following Aβ1-42 insult: study arm A, B or C
Experimental: (§1) Whether pre-treatment with tissue kallikrein protects rat mixed cortical cultures against exposure to human amyloid beta peptide (Aβ1-42) was investigated. Cell death was analyzed by LDH-release, an indication of necrosis, and cell viability was also analyzed by neuronal cell count. First (Study Arm A), tissue kallikrein was added to the cells only prior to the Aβ1-42 insult (at −24 h and at −30 min). Whereas in the second part (Study Arm B), tissue kallikrein was added to the cells prior to (−30 min) and also at +24 h after the Aβ1-42 insult. At the +24 h time point, cell culture media were not changed (tissue kallikrein or corresponding amount of vehicle was added to the wells), whereas at −24 h and −30 min time point cell culture media were changed.
(§2) […] Cell Culture. Mixed cortical cultures were prepared from E18 Wistar rat embryos (National Animal Center, Kuopio, Finland). The cortices were dissected out, and the tissue cut to small pieces. The cells were separated by 15-min incubation with DNase and papain. The cells were collected by centrifugation (1500 rpm, 5 min). The tissue was triturated with a pipette and the cells were plated on poly-L-lysine-coated 48-well plates, 300,000 cells/cm^2, in MEM (2 g/L glucose) supplemented with 2 mM glutamine, 0.1 μg/ml gentamicin, 10% heat-inactivated fetal bovine serum (FBS-HI) and 10% heat-inactivated horse serum (HS-HI). After 3-4 h, the media were changed to MEM (2 g/L glucose) supplemented with 2 mM glutamine, 0.1 μg/ml gentamicin, 5% HS-HI. After three days in vitro, media containing MEM (2 g/L glucose) supplemented with glutamine, gentamicin, and 5% of both sera were changed to the cells. On day 6 in vitro, the unwanted cell division was inhibited by adding cytosine arabinoside (10 μM final concentration) for 24 h. The cultures were refed with MEM (2 g/L glucose) supplemented with glutamine, gentamicin, and 5% HS-HI before experiments.
(§3) Aβ1-42 Exposure. Tissue kallikrein (SEQ ID NO:1) was dissolved and further diluted in MEM supplemented with glucose, glutamine, gentamicin, and 5% HS-HI. As a control for total neuronal death, 300 μM N-methyl-D-aspartic acid (NMDA) for 48 h was used, and 10 μM Aβ1-42 for 48 h was used to induce approximately 30-50% cell death. Wells treated with media only served as 0-control. Tissue kallikrein or vehicle was pipetted to the cells −24 h and −30 min before adding 10 μM Aβ1-42 (final concentration). Tissue kallikrein or vehicle was again pipetted to the cells at +24 h after exposure.
LDH Measurement. After 48 h, the culture media of all wells were collected, and possible cell debris was removed by centrifugation (13,000 rpm for 3 min). A 100 μl aliquot was pipetted into a microtiter plate as duplicates, and equal amount of LDH reagent was pipetted to the wells. The absorbance at 340 nm was measured immediately using a 3 min kinetic measurement protocol in Multiskan ELISA reader (Labsystems, Finland). The change in absorbance/min was determined, which was directly proportional to the released LDH. The remaining supernatant (50 μl) was snap-frozen in dry ice for storage.
(§4) Data Analysis. The number of wells per compound concentration used was 6 (n=6). Five concentrations of Tissue kallikrein were studied (0.001, 0.01, 0.1, 1, 10 μg/ml) in both study arms. Statistical analysis was performed using StatsDirect statistical software. The values were analyzed by one-way ANOVA followed by Dunnet's test (comparison to the vehicle-treated group). Results are presented as mean±standard deviation (SD) and differences are considered to be statistically significant at the P<0.05 level.

[2] = test system: rat mixed cortical cultures (RMCC); test: Aβ1-42 toxicity in rat mixed cortical cultures, neuronal survival (NeuN cell count); type: cell-based; conditions: 1 nM, 5 nM, 10 nM, 50 nM and 100 nM; study arm A, B or C
Experimental: as §1, §2, §3
Immunocytochemistry for Neuronal Survival. For neuronal counts, the cultures were fixed with 4% paraformaldehyde in 0.01 M PBS for 30 min and washed twice with PBS. The fixed cells were first permeabilized, and non-specific binding blocked by 30 min incubation with blocking buffer containing 1% bovine serum albumin and 0.3% Triton® X-100 in PBS. Anti-neuronal nuclei antibody (anti-NeuN, dilution 1:500, Chemicon, Temecula, Calif.) was used as the primary antibody. The cells were incubated with the primary antibody for 48 h, followed by incubation with a biotinylated secondary antibody (1:200, Vector Labs) for 2 h, and the avidin-biotin-peroxidase complex (ABC-reagent, 1:200, Vector ABC Elite Kit, Vector Labs) for 2 h. The positive cells were visualized using Ni-enhanced DAB as a substrate (DAB Substrate kit, Vector Labs). The NeuN immunopositive neurons were counted using a light microscope. Altogether, 2 fields of each well were counted. The results are shown as percent viable neurons.
as §4, with “Five concentrations of Tissue kallikrein were studied (0.001, 0.01, 0.1, 1, 10 μg/ml) in both study arms.” left out

lysyl-bradykinin [kallidin, reference compound]
LDH release following Aβ1-42 insult ([1]; 1 nM, 5 nM, 10 nM, 50 nM and 100 nM): did not alter LDH release
LDH release following Aβ1-42 insult ([1]; 1 μM and 10 μM): did alter LDH release
cell death following Aβ1-42 insult (LDH) ([1]; 100 μM, compared to Aβ1-42 insult alone): significantly potentated cell death
cell counts (survival) following Aβ1-42 insult [2]: did not affect cell counts
